{"source": "patent US20200255436A1", "about": "“CORTICOTROPIN RELEASING FACTOR RECEPTOR ANTAGONISTS” (Spruce Biosciences, Inc., priority 2019, published 2020)", "target": "T1, CRF1 receptor (Homo sapiens, UniProt P34998)", "T1 construct": "from tissue; host or cells: Human patients in vivo (anterior pituitary corticotrophs)", "T1 sequence (P34998 24-415)": "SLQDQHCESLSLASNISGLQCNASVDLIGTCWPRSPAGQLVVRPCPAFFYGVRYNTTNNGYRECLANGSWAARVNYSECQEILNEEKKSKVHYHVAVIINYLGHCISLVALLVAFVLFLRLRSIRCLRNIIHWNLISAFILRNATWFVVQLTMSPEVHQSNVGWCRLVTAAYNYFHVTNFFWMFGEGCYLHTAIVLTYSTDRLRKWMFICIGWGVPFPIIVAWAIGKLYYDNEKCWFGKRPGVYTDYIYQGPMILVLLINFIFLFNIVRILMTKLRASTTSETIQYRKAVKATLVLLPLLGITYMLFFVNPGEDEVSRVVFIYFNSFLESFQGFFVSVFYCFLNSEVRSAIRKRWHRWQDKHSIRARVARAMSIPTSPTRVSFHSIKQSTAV", "test": "Phase 2 study in adults with classic CAH: ACTH, 17-OHP, androstenedione response", "assay_type": "in vivo", "conditions": "patients with classic CAH", "text": "Cohort A of the Phase 2 Study includes a 6-week, multiple-dose, dose escalation study of Compound 1 for the treatment of adults with classic CAH. After screening, eligible patients will be enrolled into a 6-week treatment period followed by a 4-week washout/safety follow-up period.\nThis cohort will be conducted in approximately 9 patients, who will receive Compound 1 daily for up to 6 weeks. Compound 1 will be administered as an oral daily dose. Patients will undergo titration of Compound 1 through three escalating dosage strengths at 2-week intervals. Patients will have overnight PK/PD assessments performed at baseline, which include an pre-dose overnight assessment and a post-dose overnight assessment for PK/PD following administration of the first dose. At the end of each 2-week dosing period, patients will return for single overnight visits for steady-state PK/PD assessments. A follow-up outpatient visit will occur 30 days after their last dose. Upon completion of the initial cohort (Cohort A), the study will proceed to a multiple ascending dose (MAD) design with up to 3 sequential cohorts (Cohorts B, C, and D) to further evaluate the safety, PK, and PD of various SPROO1 dosing regimens and to identify an optimal dose regimen. Each cohort will undergo a 2-week run-in period, a 2-week treatment period, and a 30-day washout and safety follow-up period. During the run-in period, which will occur during screening, subjects will document in a paper diary each dose of glucocorticoid medication taken, the time of each meal, and the time they went to bed and woke up each day, to ensure compliance with background glucocorticoid regimens and the stability of their daily routine.\n• 1. To evaluate the safety of Compound 1 in subjects with CAH. • 2. To assess the efficacy of Compound 1 in subjects with classic CAH as measured by percent and absolute change in 17-OHP compared to baseline.\n• 3. To explore the dose(s) of Compound 1 that cause pharmacodynamics changes in plasma concentrations of ACTH, androstenedione, and testosterone, as measured by the absolute and percent change from baseline by dose. • 4. To determine pharmacokinetics of Compound 1 in subjects with CAH. • 5. To explore potential relationships between pharmacodynamics and pharmacokinetics.", "data": [{"smiles": "CCC(CC)c1cc(C)nc2c(-c3sc(N4CCOCC4)nc3Cl)c(C)nn12", "note": "[Compound 1, 4-(4-chloro-5-(2,5-dimethyl-7-(pentan-3-yl)pyrazolo[1,5-a]pyrimidin-3-yl)thiazol-2-yl)morpholine]", "values": [{"measurement": "effect on morning rise in A4 (androstenedione)", "value": "attenuates morning rise in A4"}, {"measurement": "subjects with 17-OHP within the guideline range (1200 ng/dL) after treatment", "value": 50, "unit": "%"}, {"measurement": "subjects with ACTH in the normal range after treatment", "value": 40, "unit": "%"}, {"measurement": "subjects with Androstenedione within normal reference range after treatment", "value": 50, "unit": "%"}, {"measurement": "subjects with more than 25% reduction in 17-OHP", "value": 50, "unit": "%"}, {"measurement": "subjects with more than 25% reduction in ACTH", "value": 70, "unit": "%"}, {"measurement": "subjects with more than 25% reduction in Androstenedione", "value": 60, "unit": "%"}, {"measurement": "subjects with reduction in 17-OHP", "value": 80, "unit": "%"}, {"measurement": "subjects with reduction in ACTH", "value": 80, "unit": "%"}, {"measurement": "subjects with reduction in Androstenedione", "setting": "at various doses", "value": 100, "unit": "%"}]}]}
